Literature values in patent publication US8877445B2, “Methods for identification of tumor phenotype and treatment” (Intelligent Oncotherapeutics, Inc., priority 2008, dated 2014).
Values belong to the molecule of their own block, whether it stands above or below them. Where no end group is shown, it is not given here. [ ]: non-standard residue; d: D form.

Experiments:
melanoma cells = settings: in vitro (Ghosh et al. 2005)
FOXM1 = target: T1, FOXM1 (Homo sapiens, UniProt Q08050)
T1 sequence (Q08050 1-763): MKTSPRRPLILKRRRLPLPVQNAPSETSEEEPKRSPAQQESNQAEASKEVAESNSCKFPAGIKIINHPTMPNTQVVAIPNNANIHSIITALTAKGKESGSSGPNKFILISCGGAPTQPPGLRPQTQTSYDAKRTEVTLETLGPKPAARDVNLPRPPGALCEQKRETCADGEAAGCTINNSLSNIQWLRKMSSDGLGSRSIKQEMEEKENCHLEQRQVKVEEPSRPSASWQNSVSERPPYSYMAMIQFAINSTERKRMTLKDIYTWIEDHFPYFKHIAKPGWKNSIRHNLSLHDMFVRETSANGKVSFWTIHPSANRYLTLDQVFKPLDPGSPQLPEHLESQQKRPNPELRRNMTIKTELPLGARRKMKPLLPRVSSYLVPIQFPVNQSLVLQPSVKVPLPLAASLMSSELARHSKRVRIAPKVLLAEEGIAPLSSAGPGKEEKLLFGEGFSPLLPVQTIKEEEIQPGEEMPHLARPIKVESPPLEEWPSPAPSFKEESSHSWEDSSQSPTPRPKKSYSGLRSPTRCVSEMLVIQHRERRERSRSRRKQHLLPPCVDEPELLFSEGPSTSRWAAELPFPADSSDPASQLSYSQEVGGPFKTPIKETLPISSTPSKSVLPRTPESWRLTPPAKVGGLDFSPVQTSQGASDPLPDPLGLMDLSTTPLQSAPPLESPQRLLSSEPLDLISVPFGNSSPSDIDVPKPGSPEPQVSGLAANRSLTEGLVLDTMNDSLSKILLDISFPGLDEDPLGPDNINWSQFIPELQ

[1] = tested on: cultured human tumor cells
[2] = in vivo
aurora B = aurora B (Homo sapiens, UniProt Q96GD4); settings: at efficacious concentrations
[3] = tested on: subcutaneous human tumor xenografts; settings: for mitotic accumulation and apoptosis in xenografts / tolerability of efficacious doses: mouse, in vivo; for tolerability of efficacious doses: po; for tumor growth: oral administration (MLN8237: repeated) at well tolerated doses
patients [4] = settings: clinical phase I trial
patients [5] = tested on: patients
cells = settings: reviewed in Agnese et al. 2007
human tumor types = settings: in vivo, wide range of human tumor types (Pan et al. 2008)
[6] = tested on: leukemia, colon and pancreatic tumors
patients [7] = settings: phase I; dose levels well below those which cause dose-limiting toxicity (ASCO 2008 abstract #3009)
Aurora A [8] = target: T2, Aurora A (Homo sapiens, UniProt O14965); settings: in vitro
Aurora A [9] = target: T2, Aurora A; settings: cultured cells

T2 sequence (O14965 whole entry): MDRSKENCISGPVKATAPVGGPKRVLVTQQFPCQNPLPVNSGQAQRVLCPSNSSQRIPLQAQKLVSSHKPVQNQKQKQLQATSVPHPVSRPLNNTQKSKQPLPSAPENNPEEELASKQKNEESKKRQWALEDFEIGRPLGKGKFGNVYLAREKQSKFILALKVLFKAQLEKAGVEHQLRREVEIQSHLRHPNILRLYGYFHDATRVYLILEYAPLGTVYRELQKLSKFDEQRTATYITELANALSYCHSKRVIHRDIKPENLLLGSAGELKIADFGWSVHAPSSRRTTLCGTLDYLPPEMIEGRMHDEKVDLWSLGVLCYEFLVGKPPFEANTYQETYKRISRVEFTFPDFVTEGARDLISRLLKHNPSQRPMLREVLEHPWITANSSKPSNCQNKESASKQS
Chain of aurora B (Q96GD4 whole entry): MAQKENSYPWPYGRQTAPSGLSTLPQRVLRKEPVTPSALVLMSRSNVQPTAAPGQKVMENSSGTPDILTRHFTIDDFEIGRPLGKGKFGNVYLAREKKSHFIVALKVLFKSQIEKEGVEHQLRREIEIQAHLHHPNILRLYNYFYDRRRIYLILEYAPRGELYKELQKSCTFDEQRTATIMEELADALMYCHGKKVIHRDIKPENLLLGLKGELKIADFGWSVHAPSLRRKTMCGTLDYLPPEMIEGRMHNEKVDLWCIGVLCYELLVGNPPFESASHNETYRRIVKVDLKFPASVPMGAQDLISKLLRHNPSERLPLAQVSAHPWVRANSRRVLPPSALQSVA

Molecule: C=CCc1ccc(O)c(OC)c1 [Eugenol]
E2F1 targeting and killing of melanoma cells (melanoma cells): target E2F1 and kill melanoma cells

action on FOXM1 (FOXM1; Gusarova et al. 2007): blocks FOXM1
Molecule: (D-Arg)9-p19ARF 26-44: small peptide that blocks FOXM1; rrrrrrrrrrKFVRSRRPRTAS-CALAFVN containing nine D-Arg residues at the amino terminus ([dR][dR][dR][dR][dR][dR][dR][dR][dR]KFVRSRRPRTASCALAFVN; not fully specified; printed as rrrrrrrrrrKFVRSRRPRTAS-CALAFVN; UniProt Q64364 26-44, looked up, fragment)
effects in vitro and in vivo (FOXM1; both in vitro and in vivo): growth inhibition, reduction in levels of survivin, aurora B kinase, and PLK1 as well as inducing apoptosis

Molecule: COc1cc(Nc2ncc3c(n2)-c2ccc(Cl)cc2C(c2c(F)cccc2OC)=NC3)ccc1C(=O)O [MLN8237]
effects on cultured human tumor cells [1]: mitotic spindle abnormalities, mitotic accumulation, inhibition of cell proliferation and apoptosis
pharmacokinetic profile [2]: favorable pharmacokinetic profile
oral bioavailability ([2]; po): orally bioavailable
aurora B inhibition (aurora B): did not appreciably inhibit aurora B
mitotic accumulation and apoptosis in xenografts [3]: induced mitotic accumulation and apoptosis
tolerability of efficacious doses [3]: well tolerated doses
tumor growth [3]: dramatic tumor growth inhibition in all tumor models evaluated
accumulation of mitotic cells ([3]; single oral administration): time dependent accumulation of mitotic cells

Molecule: Cc1cc(Nc2ncc(F)c(NC3C4C=CC(C4)C3C(N)=O)n2)ccc1N1CCN(C)CC1 (stereo not shown) [AS703569]
toxicities (patients [4]): tolerable toxicities

Molecule: CO[C@@H](C(=O)N1Cc2n[nH]c(NC(=O)c3ccc(N4CCN(C)CC4)cc3)c2C1)c1ccccc1 [PHA-739358]
toxicities (patients [4]): tolerable toxicities

Molecule: CCN(CCCOc1ccc2c(Nc3cc(CC(=O)Nc4cccc(F)c4)n[nH]3)ncnc2c1)CCOP(=O)(O)O [AD1152]
toxicity (patients [5]; phase I): neutropenia as the only significant toxicity
patients with significant disease stabilization (patients [5]; phase I (ASCO 2008 abstract #3008)): 5 of 12

Molecule: COc1cc2c(Nc3ccc(NC(=O)c4ccccc4)cc3)ncnc2cc1OCCCN1CCOCC1 [ZM 447439]
toxicities (patients [4]): tolerable toxicities

Molecule: Cc1cc(Nc2cc(N3CCN(C)CC3)nc(Sc3ccc(NC(=O)C4CC4)cc3)n2)[nH]n1 [VX-680]
effect on cell proliferation, spindle formation, DNA copies, cell death (cells): block cell proliferation, disrupt bipolar spindle formation, and lead to accumulation of cells with 4N or greater numbers of chromosomal DNA copies and eventual cell death
cell-cycle progression and apoptosis (human tumor types): blocks cell-cycle progression and induces apoptosis
tolerability of efficacious doses ([6]; xenograft models): well-tolerated doses
tumor regression ([6]; xenograft models): regression of leukemia, colon and pancreatic tumors
tumor growth ([6]; xenograft models (Harrington et al. 2004)): substantial inhibition of tumor growth
patients who achieved stable disease (patients [7]): three of 16

Molecule: CC(=O)NCC(=O)N1[C@@H]2CC[C@H]1c1ccc(Nc3ncc(C(F)(F)F)c(NC4CCC4)n3)cc12 [PF-03814735]
toxicities (patients [4]): tolerable toxicities

Molecule: O=C(O)c1ccc(Nc2ncc3c(n2)-c2ccc(Cl)cc2C(c2c(F)cccc2F)=NC3)cc1 [MLN8054]
toxicities (patients [4]): tolerable toxicities
effects on cultured human tumor cells [1]: G2/M accumulation and spindle defects and inhibits proliferation
duration of tumor growth inhibition ([3]; after end of treatment): sustained after discontinuing MLN8054 treatment
mitotic accumulation and apoptosis in xenografts [3]: induced mitotic accumulation and apoptosis
tolerability of efficacious doses [3]: well tolerated doses
tumor growth [3]: dramatically inhibited
Aurora A kinase activity (Aurora A [8]): inhibits recombinant Aurora A kinase activity
selectivity Aurora A over Aurora B (Aurora A [9]): selective for Aurora A over the family member Aurora B

Molecule: O=C(Nc1cccc(Cl)c1)Nc1ncc(CCNc2ncnc3ccsc23)s1 [SNS-314]
toxicities (patients [4]): tolerable toxicities

Molecule: COCC[n+]1c2c(n(Cc3cnccn3)c1C)C(=O)c1ccccc1C2=O.[Br-] [YM155]
toxicity (solid tumors; phase I): tolerable toxicity
clinical activity (solid tumors; phase I (2008 abstracts #3536, 5135, 8538)): clinical activity in solid tumors
